In patent US12295983B2, “Use of extracts of the leaves of lemon verbena (Aloysia citriodora) for increasing the neuronal, cerebral availability of neurotransmitters selected from the group of serotonin, dopamine, noradrenaline” (Finzelberg GMBH & Co. KG, priority 2018, dated 2025):
Where two headings read alike, the source gives them in different places.

Tests used:
[1] = target: T1, dopamine reuptake in synaptosomes from rat cortex (Rattus norvegicus, UniProt P23977); conditions: read-out: Dopamine (IC50 μg/ml), literature value, cited from earlier work
T1 construct: Freshly isolated synaptosomes from rats were used; from tissue; host or cells: synaptosomes from rat cortex
T1 sequence (P23977 whole entry): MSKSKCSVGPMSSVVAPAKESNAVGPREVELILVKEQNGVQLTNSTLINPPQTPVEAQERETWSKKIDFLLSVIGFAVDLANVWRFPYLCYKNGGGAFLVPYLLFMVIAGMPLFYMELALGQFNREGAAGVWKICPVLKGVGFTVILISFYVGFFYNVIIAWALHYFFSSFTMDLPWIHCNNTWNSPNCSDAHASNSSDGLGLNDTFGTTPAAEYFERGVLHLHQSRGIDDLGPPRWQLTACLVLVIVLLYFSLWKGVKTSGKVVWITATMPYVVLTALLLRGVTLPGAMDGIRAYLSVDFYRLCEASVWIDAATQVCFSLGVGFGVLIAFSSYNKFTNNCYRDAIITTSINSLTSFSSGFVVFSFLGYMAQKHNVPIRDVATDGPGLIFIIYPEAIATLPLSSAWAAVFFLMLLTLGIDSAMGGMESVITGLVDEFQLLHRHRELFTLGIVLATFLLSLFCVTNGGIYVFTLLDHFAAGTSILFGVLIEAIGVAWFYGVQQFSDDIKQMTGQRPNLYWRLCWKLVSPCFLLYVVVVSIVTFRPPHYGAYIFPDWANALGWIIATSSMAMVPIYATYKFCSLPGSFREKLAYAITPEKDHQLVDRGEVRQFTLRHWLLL

[2] = target: T2, serotonin reuptake in synaptosomes from rat cortex (Rattus norvegicus, UniProt P31652); experiment: Serotonin reuptake test with [3H]-serotonin in freshly isolated synaptosomes; format: biochemical; conditions: ratio of reuptake IC50 values
T2 construct: Freshly isolated synaptosomes from rats were used; from tissue; host or cells: synaptosomes from rat cortex
T2 sequence (P31652 whole entry): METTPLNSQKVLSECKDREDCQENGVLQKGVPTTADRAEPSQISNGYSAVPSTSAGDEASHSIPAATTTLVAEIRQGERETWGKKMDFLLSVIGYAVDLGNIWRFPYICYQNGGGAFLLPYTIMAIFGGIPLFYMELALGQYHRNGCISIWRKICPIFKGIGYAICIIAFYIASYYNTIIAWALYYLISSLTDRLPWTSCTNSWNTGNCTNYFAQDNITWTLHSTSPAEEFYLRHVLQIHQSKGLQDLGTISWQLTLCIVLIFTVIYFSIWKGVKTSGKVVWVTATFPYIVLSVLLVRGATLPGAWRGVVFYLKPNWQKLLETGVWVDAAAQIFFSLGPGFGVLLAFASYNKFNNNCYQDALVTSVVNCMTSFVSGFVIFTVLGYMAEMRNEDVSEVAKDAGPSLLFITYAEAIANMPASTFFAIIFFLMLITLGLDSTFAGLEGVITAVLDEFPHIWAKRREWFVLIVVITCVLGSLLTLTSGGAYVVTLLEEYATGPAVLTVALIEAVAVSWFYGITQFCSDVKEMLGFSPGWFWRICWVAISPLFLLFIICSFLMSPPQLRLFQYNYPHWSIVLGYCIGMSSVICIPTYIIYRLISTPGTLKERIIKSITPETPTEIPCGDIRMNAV
Protocol: Freshly isolated synaptosomes from rats were used according to Perovic and Müller [Perovic S, Müller W E, 1995, Arzneimittelforschung 45; 1145-1148] for a dopamine reuptake test, and a serotonin reuptake test, and a noradrenaline reuptake test. [^3H]-dopamine, [^3H]-noradrenaline and [^3H]-serotonin, respectively, served as the ligands. The test substance was incubated with the synaptosomes and the corresponding ligand for 15 min at 37° C. in the dark. The samples were then transferred to GF/C filter plates, and washed cold twice, and dried, before the filter-bound radioactivity was measured with a microtitration plate counter (Microbeta, Wallac, Finland). For determining the 100% reuptake, the experiment was performed without test substances. The measured value for incubation with corresponding inhibitors (GBR12909 in the dopamine reuptake inhibition, protriptyline in the noradrenaline reuptake inhibition, and imipramine hydrochloride for the serotonin reuptake inhibition) was considered as a 0% uptake.

[3] = tested on: noradrenaline reuptake in synaptosomes from rat cortex; conditions: literature value, cited from earlier work
[4] = target: T2, serotonin reuptake in synaptosomes from rat cortex; conditions: read-out: Serotonin (IC50 μg/ml); literature value, Markowitz et al.; cited from earlier work
[5] = tested on: transgenic C. elegans strain CL2355 expressing human β-amyloid pan-neuronally; experiment: β-Amyloid-induced neuronal dysfunction, chemotaxis towards benzaldehyde; format: in vivo, Caenorhabditis elegans
Protocol: β-Amyloid species can damage neurons and trigger a dysfunction of neuronally controlled behavior. The transgenic C. elegans strain CL2355 expresses human β-amyloid on a pan-neuronal level. This leads to cognitive disorders, such as reduced chemotactic movement towards an attractant (benzaldehyde). In the experiments, the chemotaxis index, i.e., the proportion of worms moved towards the attractant on the agar plate, was measured. […] The experiment was performed in accordance with […] et al.

[6] = tested on: transgenic C. elegans strain CL4176 expressing human β-amyloid (Aβ 1-42); experiment: β-Amyloid-induced toxicity (paralysis, PT50) in C. elegans model; format: in vivo, Caenorhabditis elegans; conditions: 200 μg/ml; negative control 31.0 ± 0.4
Protocol: In order to test the effect on β-amyloid toxicity, the transgenic C. elegans strain CL4176, which can express human β-amyloid (Aβ 1-42), was employed. Aβ expression can be induced by increasing the temperature. Age-synchronized and treated worms were incubated at 16° C. for 48 hours. After increasing the temperature to 25° C. and incubation for 24 hours, the worms began to get paralyzed because of the toxicity of the Aβ oligomer. The paralysis was evaluated every 2 hours (experimental set-up according to Heiner et al.: Sideritis scardica extracts inhibit the aggregation of α-synuclein and β-amyloid peptides in Caenorhabditis elegans used as a model for neurodegenerative diseases. Planta Medica 81—PW_127, 2015). Substances that counteract this toxic effect of β-amyloid lead to a slower or later paralysis of the animals. Such substances delay the neurodegeneration, inter alia, in Alzheimer's dementia. The median (PT50), which is the time when exactly 50% of the nematodes were paralyzed, was used as a comparative value.

[7] = tested on: dopaminergic neurons of transgenic C. elegans strain BZ555; experiment: Protection of dopaminergic neurons from 6-OHDA-induced degeneration (GFP fluorescence); format: in vivo, Caenorhabditis elegans; conditions: worms + 50 mM 6-OHDA + 100 μg/ml; negative control 34.3 ± 4.3
Protocol: 6-Hydroxydopamine (6-OHDA) damages dopaminergic neurons, which is used in different animal models. The transgenic C. elegans strain BZ555 expresses green fluorescent protein in dopaminergic neurons. Thus, the 6-OHDA-induced neurodegeneration or the reduction thereof can be quantified by fluorescence microscopy. The worms were exposed to 50 mM 6-OHDA, which reduces the fluorescence intensity of the neurons because of the degeneration thereof. Bupropione, a selective noradrenaline and dopamine reuptake inhibitor (NDRI), serves as the positive control. Through the inhibition of the noradrenaline (NA) or dopamine (DA) transporters (reuptake), bupropion prevents the neurotoxin 6-OHDA from getting into and damaging the neurons.

## COC(=O)C(c1ccccc1)C1CCCCN1 (stereo not shown) [Methylphenidate]
[1]; Markowitz et al.
  IC50: 1110 nM
[1]; Sommer et al.
  IC50: 489 nM
[2]
  activity ratio of serotonin to noradrenaline (factor): 86
[3]; Markowitz et al.
  Noradrenaline (IC50 μg/ml): 0.052 µg/mL
[3]; Sommer et al.
  Noradrenaline (IC50 μg/ml): 0.050 µg/mL
[4]
  IC50: 18500 nM

## C[C@@H]1O[C@@H](O[C@@H]2[C@@H](O)[C@H](OCCc3ccc(O)c(O)c3)O[C@H](CO)[C@H]2OC(=O)/C=C/c2ccc(O)c(O)c2)[C@H](O)[C@H](O)[C@H]1O [acteoside]
[5]; 200 μg/ml
  share of the chemotaxis index of the control strain CL2122 reached: about 88%
[5]; CL2355, 200 μg/ml, untreated 0.10 ± 0.04, control strain CL2122 0.50 ± 0.09
  Chemotaxis index: 0.45 ± 0.02 (p < 0.05)
[6]
  PT50 value: 32.8 ± 0.3 h

## CC(NC(C)(C)C)C(=O)c1cccc(Cl)c1 (stereo not shown) [bupropion]
[7]
  Fluorescence intensity [% of untreated group]: 68.2 ± 7.7 % of untreated group
